According to patent publication US11071767B2, “Dietary compositions for reducing blood glucose levels and for weight management” (MARMAR INVESTMENT SP. Z O.O., priority 2014, dated 2021):

Experiments:
[1] = test system: male Wistar rats; test: Glucose tolerance test (sucrose or starch) in rats after plant extract combinations I-III (Example 2); format: in vivo, rat
Method: Each study group consisted of 10 rats. Rats were kept in individual cages in a ventilated at a constant temperature of about 22° C., controlled relative humidity of about 60% and appropriate lighting (day/night, 12/12 hours). During the experimental period, rats were fed the standard laboratory rodent mix. Rats were deprived of food 12 hours prior to the first measurement of blood glucose levels, while constant access to water was maintained. On the day of the experiment, rats were weighed and fasting blood glucose measurements were taken, via a scalpel incision at the tip of the tail. Next, rats were administered water (negative control), acarbose (positive control) or aqueous solutions of pre-defined combinations of plant extracts, as follows: • acarbose preparation: 35 mg per 1 kg body weight • combination I: white mulberry extract (120 mg per 1 kg body weight)+ bean extract (100 mg per 1 kg body weight)+ green coffee extract (20 mg per 1 kg body weight). • combination II: white mulberry extract (120 mg per 1 kg body weight)+ green coffee extract (20 mg per 1 kg body weight)+ arabinose preparation (25 mg per 1 kg body weight). • combination III: white mulberry extract (120 mg per 1 kg body weight)+ bean extract (100 mg per 1 kg body weight)+ green coffee extract (20 mg per 1 kg body weight)+ arabinose preparation (25 mg per 1 kg body weight). The solutions of the extracts were prepared so that the volume of liquid administered to an animal weighing 350 g was 1 mL. Water was administered to the control group in a similar manner. […] Statistical analysis using Student's t-test was performed for proper interpretation of results. Each result obtained for a particular product was compared to the analogous result obtained in the negative control (water) group. Results are presented in Table 2, below and in FIGS. 5A-5B.

[2] = test system: male Wistar rats; test: Glucose tolerance test in rats after single plant extracts (Example 1); format: in vivo, rat
Method: An experiment was conducted on 96 male Wistar rats with mean body weight of 381.2±16.6 g, bred at […] in Olsztyn. Each study group consisted of 12 rats. The animals were kept in individual cages in a ventilated room at a constant temperature of about 22° C., controlled relative humidity of about 60% and appropriate lighting (day/night, 12/12 hours). During the experimental period, the animals were fed a standard laboratory rodent mix. Rats were deprived of food 12 hours prior to the first measurement of blood glucose levels, while constant access to water was maintained. On the day of the experiment, the rats were weighed and fasting blood glucose measurements were taken, via a scalpel incision at the tip of the tail. Next, the animals received aqueous solutions of plant extracts, Acarbose, which served as a positive control (PC) or water, which served as a negative control (NC) at pre-defined quantities via a gastric tube. All the plant extracts were provided by […] Investment in a solution form, and were administered according to the following doses: • white mulberry extract (mulberry): 120 mg per 1 kg body weight • bean extract: 100 mg per 1 kg body weight • green coffee extract (coffee): 20 mg per 1 kg body weight • bitter melon extract (melon): 150 mg per 1 kg body weight • pomelo extract: 100 mg per 1 kg body weight • acarbose preparation: 35 mg per 1 kg body weight • arabinose preparation: 25 mg per 1 kg body weight The extract solutions were prepared so as the amount of liquid administered to a sample animal weighing 350 g was 1 mL. Water was administered to the control group in the same manner/volume. […] Statistical analysis using Student's t-test was performed for proper interpretation of results. Each result obtained for a particular product was compared to the analogous result obtained in the negative control (water) group.

[3] = GLUCOSE load (50% glucose solution), 0 min (fasting)
[4] = STARCH load (40% starch solution), 0 min (fasting)
[5] = SUCROSE load (50% sucrose solution), 0 min (fasting)

Structure (SMILES) | blood glucose level [2, 3] [mg/dL] | blood glucose level ([2]; GLUCOSE load, 15 min) [mg/dL] | blood glucose level ([2]; GLUCOSE load, 30 min) [mg/dL] | blood glucose level ([2]; GLUCOSE load, 60 min) [mg/dL] | blood glucose level ([2]; GLUCOSE load, 90 min) [mg/dL] | blood glucose level ([2]; GLUCOSE load, 120 min) [mg/dL] | blood glucose level ([2]; GLUCOSE load, 180 min) [mg/dL] | blood glucose level [2, 4] [mg/dL] | blood glucose level ([2]; STARCH load, 15 min) [mg/dL] | blood glucose level ([2]; STARCH load, 30 min) [mg/dL] | blood glucose level ([2]; STARCH load, 60 min) [mg/dL] | blood glucose level ([2]; STARCH load, 90 min) [mg/dL] | blood glucose level ([2]; STARCH load, 120 min) [mg/dL] | blood glucose level ([2]; STARCH load, 180 min) [mg/dL] | blood glucose level [2, 5] [mg/dL] | blood glucose level ([2]; SUCROSE load, 15 min) [mg/dL] | blood glucose level ([2]; SUCROSE load, 30 min) [mg/dL] | blood glucose level ([2]; SUCROSE load, 60 min) [mg/dL] | blood glucose level ([2]; SUCROSE load, 90 min) [mg/dL] | blood glucose level ([2]; SUCROSE load, 120 min) [mg/dL] | other results
C[C@H]1O[C@H](O[C@H]2[C@H](O)[C@@H](O)[C@@H](O[C@H]3[C@H](O)[C@@H](O)C(O)O[C@@H]3CO)O[C@@H]2CO)[C@H](O)[C@@H](O)[C@@H]1N[C@H]1C=C(CO)[C@@H](O)[C@H](O)[C@H]1O (some centres unmarked) [Acarbose] | 95.6 ± 6.37 | 168.9 ± 16.33 | 163.3 ± 22.35 | 158.0 ± 12.91 | 157.6 ± 10.20 | 137.7 ± 10.07 | 106.8 ± 8.59 | 93.5 ± 6.36 | 120.0 ± 14.97 | 114.9 ± 14.48 | 100.1 ± 7.28 | 95.5 ± 6.17 | 94.6 ± 6.02 | 90.0 ± 7.03 | 94.2 ± 7.43 | 120.0 ± 15.80 | 114.9 ± 14.48 | 100.1 ± 7.28 | 95.5 ± 6.17 | 94.6 ± 6.02 | blood glucose level ([1]; STARCH 40% solution 2 g/kg, 0 min (fasting)): 89.7 ± 6.09 mg/dL; blood glucose level ([1]; STARCH, 15 min): 105.5 ± 9.74 mg/dL; blood glucose level ([1]; STARCH, 30 min): 104.6 ± 4.24 mg/dL; blood glucose level ([1]; STARCH, 60 min): 97.3 ± 7.18 mg/dL; blood glucose level ([1]; STARCH, 90 min): 98.3 ± 6.09 mg/dL; blood glucose level ([1]; STARCH, 120 min): 94.8 ± 6.01 mg/dL; blood glucose level ([1]; STARCH, 180 min): 88.7 ± 4.87 mg/dL; blood glucose level ([1]; SUCROSE 50% solution 2 g/kg, 0 min (fasting)): 84.7 ± 4.81 mg/dL; blood glucose level ([1]; SUCROSE, 15 min): 112.2 ± 8.58 mg/dL; blood glucose level ([1]; SUCROSE, 30 min): 121.1 ± 8.93 mg/dL; blood glucose level ([1]; SUCROSE, 60 min): 116.0 ± 6.87 mg/dL; blood glucose level ([1]; SUCROSE, 90 min): 110.2 ± 6.51 mg/dL; blood glucose level ([1]; SUCROSE, 120 min): 109.0 ± 4.66 mg/dL; blood glucose level ([1]; SUCROSE, 180 min): 101.1 ± 5.34 mg/dL; blood glucose level ([2]; SUCROSE load, 180 min): 90.0 ± 6.21 mg/dL
O=C[C@H](O)[C@@H](O)[C@@H](O)CO [Arabinose, L-Arabinose] | 96.0 ± 3.62 | 170.9 ± 19.55 | 157.1 ± 20.27 | 148.2 ± 18.33 | 152.2 ± 11.19 | 137.0 ± 8.96 | 111.6 ± 14.42 | 90.9 ± 5.92 | 116.3 ± 8.88 | 123.5 ± 12.49 | 110.9 ± 7.28 | 111.5 ± 4.19 | 106.3 ± 6.54 | 100.1 ± 6.33 | 94.7 ± 7.31 | 135.4 ± 14.68 | 132.9 ± 15.65 | 132.9 ± 9.06 | 131.7 ± 7.55 | 125.4 ± 6.52 | blood glucose level ([2]; SUCROSE load, 180 min): 123.0 ± 7.25 mg/dL
